Data reported in PMC3412176 (Journal of biological inorganic chemistry : JBIC : a …, 2012).

Target: T1, S. oneidensis cytochrome c nitrite reductase (ccNiR, NrfA) (Shewanella oneidensis, UniProt Q8EAC7)
T1 sequence (Q8EAC7 28-467): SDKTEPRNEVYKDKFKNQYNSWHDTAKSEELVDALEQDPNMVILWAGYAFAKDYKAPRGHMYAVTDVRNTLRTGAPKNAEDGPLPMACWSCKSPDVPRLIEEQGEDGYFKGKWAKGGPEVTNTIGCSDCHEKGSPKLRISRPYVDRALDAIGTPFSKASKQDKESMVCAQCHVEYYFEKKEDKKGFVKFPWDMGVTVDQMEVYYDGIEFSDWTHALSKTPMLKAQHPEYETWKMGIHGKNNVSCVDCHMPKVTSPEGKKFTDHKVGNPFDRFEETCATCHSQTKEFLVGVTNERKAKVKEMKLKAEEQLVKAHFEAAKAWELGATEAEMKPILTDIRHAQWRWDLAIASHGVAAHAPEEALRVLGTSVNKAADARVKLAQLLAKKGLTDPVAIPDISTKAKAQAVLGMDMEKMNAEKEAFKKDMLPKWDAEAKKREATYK
Format: biochemical

Structure (SMILES): O=S(O)O [sulfite]
- Ki: ~600 µM
